We go through 26 compounds from patent US9963448B2, “Bicyclic inhibitors of PAD4” (Padlock Therapeutics, Inc., priority 2015, dated 2018).

Each structure is given as a SMILES string. Structures can show the parent of a compound that is named as a salt. Where two headings read alike, the source gives them in different places. Some results are limits rather than exact numbers.

One experiment addresses hPAD4 (Homo sapiens, UniProt Q9UM07). As to the kind of experiment: hPAD4 RFMS (RapidFire mass spectrometry) PAD4 inhibition assay.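 On hPAD4 RFMS pIC50: grade E means pIC50 at most 4 and F means pIC50 4.0 to 5.0.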 The following applies: hPAD4 enzyme, RFMS readout. The format is biochemical. How it is done:
(§1) Compounds of the present invention were assayed as inhibitors of PAD4 using the assay protocol described below.
(§2) Compound stock solutions were stored at RT. […] Final assay conditions were as follows:
(§3) Total incubation time: 65 mins at 37° C.
(§4) Stop solution: 40 μl 5% TCA in ACN
(§5) The compound numbers correspond to the compound numbers in Table 1. […] The term pIC50=−log(IC50). […] “NA” stands for “not assayed.”

A further experiment addresses mPAD4 (Mus musculus, UniProt Q9Z183). In words: mPAD4 RFMS PAD4 inhibition assay.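 On mPAD4 RFMS pIC50: grade E means pIC50 at most 4 and F means pIC50 4.0 to 5.0.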 The format is biochemical. As to conditions: mPAD4, RFMS readout. How it is done: as §1, §2, §3, §4, §5
Where [1] appears, read: pIC50=−log(IC50), read-out: hPAD4 RFMS pIC50 (converted).
The mark [2] stands for this setting: pIC50=−log(IC50), read-out: mPAD4 RFMS pIC50 (converted).

Sequence of hPAD4 (Q9UM07 whole entry): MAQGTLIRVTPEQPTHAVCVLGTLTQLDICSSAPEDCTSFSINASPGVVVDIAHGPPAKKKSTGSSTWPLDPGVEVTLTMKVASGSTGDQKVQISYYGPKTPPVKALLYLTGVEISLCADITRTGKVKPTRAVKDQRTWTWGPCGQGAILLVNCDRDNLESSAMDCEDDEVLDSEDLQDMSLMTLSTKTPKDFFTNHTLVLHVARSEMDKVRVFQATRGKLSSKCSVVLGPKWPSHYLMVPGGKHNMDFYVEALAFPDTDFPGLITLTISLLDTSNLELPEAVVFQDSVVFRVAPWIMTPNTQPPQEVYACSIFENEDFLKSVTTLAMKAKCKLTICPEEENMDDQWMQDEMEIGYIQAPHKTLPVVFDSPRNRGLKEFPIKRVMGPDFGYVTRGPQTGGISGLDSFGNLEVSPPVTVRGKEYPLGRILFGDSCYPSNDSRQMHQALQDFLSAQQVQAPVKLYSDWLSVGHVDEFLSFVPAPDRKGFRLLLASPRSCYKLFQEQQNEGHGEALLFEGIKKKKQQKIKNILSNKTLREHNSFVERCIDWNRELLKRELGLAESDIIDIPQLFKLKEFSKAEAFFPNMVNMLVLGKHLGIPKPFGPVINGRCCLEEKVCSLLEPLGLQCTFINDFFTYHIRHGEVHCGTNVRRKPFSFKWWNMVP
Sequence of mPAD4 (Q9Z183 whole entry): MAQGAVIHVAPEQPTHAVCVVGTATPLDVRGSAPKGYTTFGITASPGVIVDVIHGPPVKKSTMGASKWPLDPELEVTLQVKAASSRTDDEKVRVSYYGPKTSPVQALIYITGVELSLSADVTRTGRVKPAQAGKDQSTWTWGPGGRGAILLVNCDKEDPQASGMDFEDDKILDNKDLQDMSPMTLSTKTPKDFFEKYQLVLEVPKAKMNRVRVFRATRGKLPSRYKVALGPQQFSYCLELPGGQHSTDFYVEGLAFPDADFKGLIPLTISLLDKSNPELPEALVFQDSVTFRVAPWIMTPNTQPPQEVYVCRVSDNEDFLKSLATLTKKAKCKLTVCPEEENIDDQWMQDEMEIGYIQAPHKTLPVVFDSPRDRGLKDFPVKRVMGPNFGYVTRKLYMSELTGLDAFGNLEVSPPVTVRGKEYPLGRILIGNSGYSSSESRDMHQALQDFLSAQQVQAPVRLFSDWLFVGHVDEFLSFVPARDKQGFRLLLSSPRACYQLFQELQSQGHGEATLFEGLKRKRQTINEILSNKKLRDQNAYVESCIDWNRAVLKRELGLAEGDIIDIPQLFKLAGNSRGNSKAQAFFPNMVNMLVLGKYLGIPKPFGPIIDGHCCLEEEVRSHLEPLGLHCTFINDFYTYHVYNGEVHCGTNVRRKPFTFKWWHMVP

Regarding `Cn1c(-c2cc3cccnc3n2CC2CC2)nc2cc(C(=O)N3C[C@H](N)C[C@@H](F)C3)cc(OC(F)F)c21` [Compound I-98], the IC50 at hPAD4 (setting [1]), at hPAD4 (read-out: hPAD4 RFMS IC50), on mPAD4 (setting [2]) and at mPAD4 (read-out: mPAD4 RFMS IC50) was below 1 µM in each case.

Regarding `COc1cc(C(=O)N2CCCC3(CNC3)C2)cc2nc(-c3cc4cccnc4n3CC3CC3)n(C)c12` [Compound I-100], the IC50 is above 100 µM on hPAD4 (setting [1]), above 10 µM at hPAD4 (read-out: hPAD4 RFMS IC50), above 100 µM on mPAD4 (setting [2]) and above 10 µM on mPAD4 (read-out: mPAD4 RFMS IC50).

Regarding `COc1cc(C(=O)N2CCC[C@@H](N)C2)cc2nc(-c3cc4cccnc4n3[C@H](C)C3CC3)n(C)c12` [Compound I-101, (3R)-1-(2-{1-[(1R)-1-cyclopropylethyl]-1H-pyrrolo[2,3-b]pyridin-2-yl}-7-methoxy-1-methyl-1H-1,3-benzodiazole-5-carbonyl)piperidin-3-amine], the IC50 is 1 to 10 µM at hPAD4 (setting [1]), 1 to 5 µM on hPAD4 (read-out: hPAD4 RFMS IC50), 1 to 10 µM at mPAD4 (setting [2]) and 1 to 5 µM on mPAD4 (read-out: mPAD4 RFMS IC50).

`COc1cc(C(=O)N2CCC[C@@H](N)C2)cc2nc(-c3cc4cccnc4n3[C@@H](C)C3CC3)n(C)c12` [Compound I-102, (3R)-1-(2-{1-[(1S)-1-cyclopropylethyl]-1H-pyrrolo[2,3-b]pyridin-2-yl}-7-methoxy-1-methyl-1H-1,3-benzodiazole-5-carbonyl)piperidin-3-amine]: the IC50 was 1 to 10 µM on hPAD4 (setting [1]), below 1 µM at hPAD4 (read-out: hPAD4 RFMS IC50), 1 to 10 µM on mPAD4 (setting [2]) and 1 to 5 µM at mPAD4 (read-out: mPAD4 RFMS IC50).

With `Cc1cc2c(cc1C(=O)N1CCC[C@@H](N)C1)nc(-c1cc3cccnc3n1CC1CC1)n2C` [Compound I-103, (3R)-1-{2-[1-(cyclopropylmethyl)-1H-pyrrolo[2,3-b]pyridin-2-yl]-1,6-dimethyl-1H-1,3-benzodiazole-5-carbonyl}piperidin-3-amine hydrochloride], the IC50 was 10 to 100 µM at hPAD4 (setting [1]), above 10 µM at hPAD4 (read-out: hPAD4 RFMS IC50), 10 to 100 µM on mPAD4 (setting [2]) and above 10 µM on mPAD4 (read-out: mPAD4 RFMS IC50).

As to `COc1ccc2cc(-c3nc4cc(C(=O)N5CCC[C@@H](N)C5)cc(OC(F)F)c4n3C)n(CC3CC3)c2n1` [Compound I-104, (3R)-1-{2-[1-(cyclopropylmethyl)-6-methoxy-1H-pyrrolo[2,3-b]pyridin-2-yl]-7-(difluoromethoxy)-1-methyl-1H-1,3-benzodiazole-5-carbonyl}piperidin-3-amine], the IC50 on hPAD4 (setting [1]), at hPAD4 (read-out: hPAD4 RFMS IC50), at mPAD4 (setting [2]) and at mPAD4 (read-out: mPAD4 RFMS IC50) was below 1 µM each time.

For the compound `CCc1ccc2cc(-c3nc4cc(C(=O)N5CCC[C@@H](N)C5)cc(OC)c4n3CC)n(CC3CC3)c2n1` [Compound I-105, (3R)-1-{2-[1-(cyclopropylmethyl)-6-ethyl-1H-pyrrolo[2,3-b]pyridin-2-yl]-1-ethyl-7-methoxy-1H-1,3-benzodiazole-5-carbonyl}piperidin-3-amine], the IC50 on hPAD4 (setting [1]), on hPAD4 (read-out: hPAD4 RFMS IC50), at mPAD4 (setting [2]) and on mPAD4 (read-out: mPAD4 RFMS IC50) was below 1 µM each time.

Consider `CCn1c(-c2cc3ccc(OC)nc3n2CC2CC2)nc2cc(C(=O)N3CCC[C@@H](N)C3)cc(OC)c21` [Compound I-106], for which the IC50 on hPAD4 (setting [1]), on hPAD4 (read-out: hPAD4 RFMS IC50), at mPAD4 (setting [2]) and on mPAD4 (read-out: mPAD4 RFMS IC50) was below 1 µM each time.

Take `COc1cc(C(=O)N2CC[C@]3(CNCCC3(F)F)C2)cc2nc(-c3cc4cccnc4n3CC3CC3)n(C)c12` [Compound I-107]: the IC50 at hPAD4 (setting [1]) is 10 to 100 µM; at hPAD4 (read-out: hPAD4 RFMS IC50) it was above 10 µM; at mPAD4 (setting [2]), 10 to 100 µM; on mPAD4 (read-out: mPAD4 RFMS IC50) it was above 10 µM.

Regarding `COc1cc(C(=O)N2CC[C@@]3(CNCCC3(F)F)C2)cc2nc(-c3cc4cccnc4n3CC3CC3)n(C)c12` [Compound I-108], the IC50 was 10 to 100 µM at hPAD4 (setting [1]), above 10 µM at hPAD4 (read-out: hPAD4 RFMS IC50), 10 to 100 µM at mPAD4 (setting [2]) and above 10 µM at mPAD4 (read-out: mPAD4 RFMS IC50).

As to `COc1ccc2cc(-c3nc4cc(C(=O)N5C[C@H](N)C[C@@H](F)C5)cc(OC(F)F)c4n3C)n(CC3CC3)c2n1` [Compound I-109, (3R,5R)-1-{2-[1-(cyclopropylmethyl)-6-methoxy-1H-pyrrolo[2,3-b]pyridin-2-yl]-7-(difluoromethoxy)-1-methyl-1H-1,3-benzodiazole-5-carbonyl}-5-fluoropiperidin-3-amine], the IC50 at hPAD4 (setting [1]), on hPAD4 (read-out: hPAD4 RFMS IC50), on mPAD4 (setting [2]) and at mPAD4 (read-out: mPAD4 RFMS IC50) was below 1 µM each time.

With `Cn1c(-c2cc3cccnc3n2CC2CC(C)(O)C2)nc2cc(C(=O)N3CCC[C@@H](N)C3)ccc21` (stereo partly drawn) [Compound I-110, 3-[(2-{5-[(3R)-3-Aminopiperidine-1-carbonyl]-1-methyl-1H-1,3-benzodiazol-2-yl}-1H-pyrrolo[2,3-b]pyridin-1-yl)methyl]-1-methylcyclobutan-1-ol], the IC50 was 1 to 10 µM on hPAD4 (setting [1]), 1 to 5 µM at hPAD4 (read-out: hPAD4 RFMS IC50), 10 to 100 µM at mPAD4 (setting [2]) and above 10 µM at mPAD4 (read-out: mPAD4 RFMS IC50).

With `CCOc1cc(C(=O)N2CC(N)CCC2C)cc2nc(-c3cc4cccnc4n3CC3CC3)n(C)c12` (centres unmarked) [Compound I-111], the IC50 on hPAD4 (setting [1]) was 1 to 10 µM; at hPAD4 (read-out: hPAD4 RFMS IC50) it was 1 to 5 µM; on mPAD4 (setting [2]), below 1 µM; at mPAD4 (read-out: mPAD4 RFMS IC50), below 1 µM.

`Cn1c(-c2cc3cccnc3n2CC2CC2)nc2cc(C(=O)N3CCC[C@@H](N)C3)cc(C(N)=O)c21` [Compound I-112, 5-[(3R)-3-aminopiperidine-1-carbonyl]-2-[1-(cyclopropylmethyl)-1H-pyrrolo[2,3-b]pyridin-2-yl]-1-methyl-1H-1,3-benzodiazole-7-carboxamide hydrochloride]: the IC50 on hPAD4 (setting [1]) was 1 to 10 µM; at hPAD4 (read-out: hPAD4 RFMS IC50) it was 5 to 10 µM; on mPAD4 (setting [2]), 1 to 10 µM; at mPAD4 (read-out: mPAD4 RFMS IC50), 1 to 5 µM.

In the case of `COc1cc(C(=O)N2CCC[C@@H](N)C2)cc2nc(-c3cc4cccnc4n3CC3CC(C)(O)C3)n(C)c12` (some centres unmarked) [Compound I-113], the IC50 was 1 to 10 µM at hPAD4 (setting [1]), 1 to 5 µM on hPAD4 (read-out: hPAD4 RFMS IC50), 1 to 10 µM at mPAD4 (setting [2]) and 5 to 10 µM on mPAD4 (read-out: mPAD4 RFMS IC50).

For `COc1cc(C(=O)N2CCC[C@@H](N)C2)cc2nc(-c3cc4cccnc4n3CC3CC3)n(CC3CC(C)(O)C3)c12` (some centres unmarked) [Compound I-114], the IC50 on hPAD4 (setting [1]), at hPAD4 (read-out: hPAD4 RFMS IC50), on mPAD4 (setting [2]) and on mPAD4 (read-out: mPAD4 RFMS IC50) was below 1 µM throughout.

In the case of `COc1cc(C(=O)N2CC3CCC2C(N)C3)cc2nc(-c3cc4cccnc4n3CC3CC3)n(C)c12` (centres unmarked) [Compound I-115], the IC50 at hPAD4 (setting [1]), on hPAD4 (read-out: hPAD4 RFMS IC50), at mPAD4 (setting [2]) and on mPAD4 (read-out: mPAD4 RFMS IC50) was below 1 µM in each case.

In the case of `CCn1c(-c2cc3cccnc3n2CC2CC2)nc2cc(C(=O)N3CCC[C@@H](N)C3)cc(OC)c21` [Compound I-119, (3R)-1-{2-[1-(cyclopropylmethyl)-1H-pyrrolo[2,3-b]pyridin-2-yl]-1-ethyl-7-methoxy-1H-1,3-benzodiazole-5-carbonyl}piperidin-3-amine], the IC50 on hPAD4 (setting [1]), at hPAD4 (read-out: hPAD4 RFMS IC50), on mPAD4 (setting [2]) and at mPAD4 (read-out: mPAD4 RFMS IC50) was below 1 µM in each case.

With `COc1cc(C(=O)N2CC[C@@H](OC)[C@@H](N)C2)cc2nc(-c3cc4cccnc4n3CC3CC3)n(C)c12` [Compound I-121], the IC50 at hPAD4 (setting [1]), on hPAD4 (read-out: hPAD4 RFMS IC50), at mPAD4 (setting [2]) and at mPAD4 (read-out: mPAD4 RFMS IC50) was below 1 µM throughout.

Turning to `COc1cc(C(=O)N2CCOC3(CNC3)C2)cc2nc(-c3cc4cccnc4n3CC3CC3)n(C)c12` [Compound I-122], the “hPAD4 RFMS pIC50” value on hPAD4 (pIC50=−log(IC50)) is “E/F”. The IC50 was above 10 µM at hPAD4 (read-out: hPAD4 RFMS IC50), above 100 µM at mPAD4 (setting [2]) and above 10 µM on mPAD4 (read-out: mPAD4 RFMS IC50).

Consider `COc1ccc2cc(-c3nc4cc(C(=O)N5C[C@H](N)C[C@@H](F)C5)cc(OC)c4n3C)n(CC3CC3)c2n1` [Compound I-123], for which the IC50 at hPAD4 (setting [1]), on hPAD4 (read-out: hPAD4 RFMS IC50), on mPAD4 (setting [2]) and at mPAD4 (read-out: mPAD4 RFMS IC50) was below 1 µM in each case.

In the case of `CO[C@@H]1CCN(C(=O)c2cc(OC(F)F)c3c(c2)nc(-c2cc4cccnc4n2CC2CC2)n3C)C[C@@H]1N` [Compound I-124], the IC50 was 10 to 100 µM on hPAD4 (setting [1]), above 10 µM at hPAD4 (read-out: hPAD4 RFMS IC50), 1 to 10 µM at mPAD4 (setting [2]) and 5 to 10 µM at mPAD4 (read-out: mPAD4 RFMS IC50).

Consider `COc1cc(C(=O)N2C[C@H]3COC[C@@]3(CN)C2)cc2nc(-c3cc4cccnc4n3CC3CC3)n(C)c12` [Compound I-125], for which the IC50 is 10 to 100 µM at hPAD4 (setting [1]), above 10 µM at hPAD4 (read-out: hPAD4 RFMS IC50), 10 to 100 µM on mPAD4 (setting [2]) and above 10 µM on mPAD4 (read-out: mPAD4 RFMS IC50).

Take `COc1cc(C(=O)N2C[C@@H]3COC[C@]3(CN)C2)cc2nc(-c3cc4cccnc4n3CC3CC3)n(C)c12` [Compound I-126]: the IC50 at hPAD4 (setting [1]) was 10 to 100 µM; on hPAD4 (read-out: hPAD4 RFMS IC50), above 10 µM; at mPAD4 (setting [2]) it was 10 to 100 µM; on mPAD4 (read-out: mPAD4 RFMS IC50), above 10 µM.

As for `COc1ccc2cc(-c3nc4cc(C(=O)N5CC[C@@H](OC)[C@@H](N)C5)ccc4n3C)n(CC3CC3)c2n1` [Compound I-127], the IC50 at hPAD4 (setting [1]) is 1 to 10 µM; at hPAD4 (read-out: hPAD4 RFMS IC50), 1 to 5 µM; on mPAD4 (setting [2]) it was 1 to 10 µM; at mPAD4 (read-out: mPAD4 RFMS IC50), 1 to 5 µM.

For the compound `Cn1c(-c2cc3cccnc3n2CC2CC2)nc2cc(C(=O)N3CCC[C@@H](N)C3)cc(CO)c21` [Compound I-128, {5-[(3R)-3-aminopiperidine-1-carbonyl]-2-[1-(cyclopropylmethyl)-1H-pyrrolo[2,3-b]pyridin-2-yl]-1-methyl-1H-1,3-benzodiazol-7-yl}methanol], the IC50 is 1 to 10 µM on hPAD4 (setting [1]), 1 to 5 µM on hPAD4 (read-out: hPAD4 RFMS IC50), 1 to 10 µM at mPAD4 (setting [2]) and 1 to 5 µM at mPAD4 (read-out: mPAD4 RFMS IC50).
